Assay results taken from US11339167B2, “Substituted piperidines as kinase inhibitors” (Daewoong Pharmaceutical Co., Ltd., priority 2017, dated 2022).
Where two headings read alike, the source gives them in different places. Each block holds one compound with its values, some of them ahead of it.

Key:
[1] = target: JAK3 kinase (Mus musculus (Mouse), UniProt Q62137); assay: JAK3-mediated cell assay (HT-2/IL-2 assay), STAT5 phosphorylation HTRF; format: cell-based; details: STAT5 phosphorylation induced by IL-2 (20 ng/ml, 10 minutes) in HT-2 cells, compound treatment 30 minutes
JAK3 kinase, sequence (Q62137 whole entry): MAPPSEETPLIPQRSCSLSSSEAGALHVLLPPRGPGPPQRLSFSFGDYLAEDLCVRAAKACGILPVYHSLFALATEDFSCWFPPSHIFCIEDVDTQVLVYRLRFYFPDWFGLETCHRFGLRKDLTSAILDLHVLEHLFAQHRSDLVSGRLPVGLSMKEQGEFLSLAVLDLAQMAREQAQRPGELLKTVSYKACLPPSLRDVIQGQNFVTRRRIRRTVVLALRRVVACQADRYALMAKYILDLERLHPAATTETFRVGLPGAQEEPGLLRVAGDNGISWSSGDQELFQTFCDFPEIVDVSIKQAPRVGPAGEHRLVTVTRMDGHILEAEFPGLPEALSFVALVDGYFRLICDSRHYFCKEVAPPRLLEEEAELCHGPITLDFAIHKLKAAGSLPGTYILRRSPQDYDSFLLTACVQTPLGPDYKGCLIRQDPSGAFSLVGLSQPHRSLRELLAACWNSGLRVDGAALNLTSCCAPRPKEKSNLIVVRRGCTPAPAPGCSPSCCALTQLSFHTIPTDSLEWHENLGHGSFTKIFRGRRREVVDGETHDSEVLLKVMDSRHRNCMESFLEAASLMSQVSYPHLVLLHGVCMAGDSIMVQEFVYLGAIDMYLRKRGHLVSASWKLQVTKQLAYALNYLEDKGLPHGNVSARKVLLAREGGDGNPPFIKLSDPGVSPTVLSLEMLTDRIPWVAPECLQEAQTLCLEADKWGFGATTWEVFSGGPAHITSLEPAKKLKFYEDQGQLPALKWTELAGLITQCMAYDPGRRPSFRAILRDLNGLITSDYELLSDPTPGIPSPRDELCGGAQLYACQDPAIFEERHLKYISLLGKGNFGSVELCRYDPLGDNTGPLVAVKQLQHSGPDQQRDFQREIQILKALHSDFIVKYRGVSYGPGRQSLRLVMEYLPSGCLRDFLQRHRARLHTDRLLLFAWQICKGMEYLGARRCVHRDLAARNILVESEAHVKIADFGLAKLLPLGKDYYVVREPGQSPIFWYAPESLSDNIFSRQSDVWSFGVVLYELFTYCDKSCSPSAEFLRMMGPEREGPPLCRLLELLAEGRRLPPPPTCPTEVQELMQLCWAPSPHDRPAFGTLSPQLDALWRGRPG
Experimental: The inhibitory activities against JAK3 kinase at the cellular level were measured for the compounds prepared in the Examples through in vitro analysis of STAT5 phosphorylation induced by IL-2 stimulation in HT-2 cells. Specifically, STAT5 phosphorylation was analyzed using HTRF® phospho-STAT5 (Tyr694) assay kit (Cisbio, 64AT5PEG), which was purchased from Cisbio. HT-2 cells were cultured for 2 hours in growth factor-free medium. The cultured HT-2 cells were dispensed into 96-well plates by 50 ul so as to be a density of 2.5×10^5 cells/well. The compounds prepared in the previous Examples were prepared so as to be finally a 0.3% DMSO aqueous solution, and HT-2 cells was treated with the compounds for 30 minutes. After the compound treatment, IL-2 was prepared so as to be finally a concentration of 20 ng/ml, and HT-2 cells was treated for 10 minutes. The cells were then disrupted by treating lysis buffers for 30 minutes. The level of STAT5 phosphorylation was measured according to the instructions of HTRF® phospho-STAT5 assay kit, and the inhibitory activity of the compounds according to the invention was calculated. For the analysis of the results of each compound, Microsoft Excel was used, and IC50 values were calculated by SigmaPlot software.

[2] = target: human BTK (Homo sapiens (Human), UniProt Q06187); assay: BTK kinase inhibitory activity, ADP Glo kinase assay
human BTK, sequence (Q06187 whole entry): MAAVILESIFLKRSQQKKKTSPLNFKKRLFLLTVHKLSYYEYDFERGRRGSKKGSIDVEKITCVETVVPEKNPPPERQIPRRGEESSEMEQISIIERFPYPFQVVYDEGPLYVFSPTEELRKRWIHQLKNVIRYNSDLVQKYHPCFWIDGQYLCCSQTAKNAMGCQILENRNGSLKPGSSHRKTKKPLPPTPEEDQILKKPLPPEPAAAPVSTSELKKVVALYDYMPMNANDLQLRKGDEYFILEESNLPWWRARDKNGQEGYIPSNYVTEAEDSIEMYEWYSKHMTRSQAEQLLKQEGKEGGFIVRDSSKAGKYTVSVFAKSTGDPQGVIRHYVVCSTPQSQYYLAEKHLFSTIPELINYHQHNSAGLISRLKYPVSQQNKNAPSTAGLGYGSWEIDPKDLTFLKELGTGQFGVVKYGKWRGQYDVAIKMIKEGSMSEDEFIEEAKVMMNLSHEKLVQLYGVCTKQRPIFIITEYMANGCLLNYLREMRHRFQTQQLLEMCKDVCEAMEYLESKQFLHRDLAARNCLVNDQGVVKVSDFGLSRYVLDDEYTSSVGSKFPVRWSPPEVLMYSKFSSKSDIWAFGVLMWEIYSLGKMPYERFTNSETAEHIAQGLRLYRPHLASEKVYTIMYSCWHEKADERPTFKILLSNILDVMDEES

[3] = target: human JAK3 (Homo sapiens (Human), UniProt P52333); assay: JAK3 kinase inhibitory activity, ADP Glo kinase assay; format: biochemical; details: recombinant purified human JAK3, ATP 5 uM, Poly(Glu4,Tyr1) peptide, 1 hour 30° C.
human JAK3, sequence (P52333 whole entry): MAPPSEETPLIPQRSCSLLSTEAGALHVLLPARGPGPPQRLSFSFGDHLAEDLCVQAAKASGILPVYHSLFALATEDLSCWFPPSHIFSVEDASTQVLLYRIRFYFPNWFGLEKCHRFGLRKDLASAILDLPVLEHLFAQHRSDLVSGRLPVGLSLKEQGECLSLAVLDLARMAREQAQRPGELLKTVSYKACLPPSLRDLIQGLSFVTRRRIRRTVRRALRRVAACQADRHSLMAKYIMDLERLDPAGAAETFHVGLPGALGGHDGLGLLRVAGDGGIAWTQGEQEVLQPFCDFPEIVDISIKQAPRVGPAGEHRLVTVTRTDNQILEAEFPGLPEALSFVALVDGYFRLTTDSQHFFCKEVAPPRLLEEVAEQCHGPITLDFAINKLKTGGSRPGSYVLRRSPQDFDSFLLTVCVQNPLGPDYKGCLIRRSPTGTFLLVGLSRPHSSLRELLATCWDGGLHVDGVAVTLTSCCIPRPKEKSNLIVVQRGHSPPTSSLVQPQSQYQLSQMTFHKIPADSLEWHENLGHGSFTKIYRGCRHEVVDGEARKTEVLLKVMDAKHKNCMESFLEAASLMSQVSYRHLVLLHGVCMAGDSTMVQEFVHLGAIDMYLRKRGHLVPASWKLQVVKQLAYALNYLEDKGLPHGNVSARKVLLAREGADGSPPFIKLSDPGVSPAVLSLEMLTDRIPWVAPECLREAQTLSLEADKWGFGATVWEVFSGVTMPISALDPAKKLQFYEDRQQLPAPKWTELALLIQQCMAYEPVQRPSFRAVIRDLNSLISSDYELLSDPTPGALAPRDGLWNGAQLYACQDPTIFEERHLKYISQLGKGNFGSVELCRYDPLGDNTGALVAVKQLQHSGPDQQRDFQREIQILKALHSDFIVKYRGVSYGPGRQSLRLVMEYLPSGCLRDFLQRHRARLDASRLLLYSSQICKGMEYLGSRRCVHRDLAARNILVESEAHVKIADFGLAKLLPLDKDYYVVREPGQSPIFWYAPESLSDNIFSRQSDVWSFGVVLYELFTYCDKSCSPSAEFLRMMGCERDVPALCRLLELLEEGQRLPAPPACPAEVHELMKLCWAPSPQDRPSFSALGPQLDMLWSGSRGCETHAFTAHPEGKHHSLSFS
Experimental: JAK3 and BTK kinases inhibitory activities were measured for the compounds prepared in the Examples through in vitro analysis on the ADP Glow (Glo) platform.
Specifically, the inhibitory activities against JAK3 and BTK kinase were measured using a JAK3 kinase assay kit (Promega, V9441) and a BTK kinase assay kit (Promega, V9071) which were purchased from Promega. […] After incubation (30° C.) for 1 hour, equivalent volume (25 uL per reaction) of ADP Glo was added and incubated (30° C.) for 40 minutes at room temperature. Then, a kinase detection reagent (50 uL per reaction) was added and incubated (30° C.) for 30 minutes at room temperature. The kinase activity was measured by chemiluminescence according to the instructions of ADP Glow kinase assay kit, and the inhibitory activity of the compounds according to the present disclosure was calculated.

[4] = read-out: BTK IC50, recombinant purified human BTK, ATP 10 uM, Poly(Glu4,Tyr1) peptide, 1 hour 30° C.

SMILES: C=CC(=O)N1CC[C@@H](F)[C@H](Oc2nc(Nc3cnn(CC)c3)nc3[nH]ccc23)C1 (racemic) [Example 1, 1-(trans-3-((2-((1-ethyl-1H-pyrazol-4-yl)amino)-7H-pyrrolo[2,3-d]pyrimidin-4-yl)oxy)-4-fluoropiperidin-1-yl)prop-2-en-1-one]
- IC50 [1]: 67.4 nM
- IC50 [2]: 2.4 nM
- IC50 [3]: 0.3 nM

SMILES: C=CC(=O)N1CC[C@@H](F)[C@H](Oc2nc(Nc3cnn(CC)c3)nc3[nH]cc(Cl)c23)C1 (racemic) [Example 9, 1-(trans-3-((5-chloro-2-((1-ethyl-1H-pyrazol-4-yl)amino)-7H-pyrrolo[2,3-d]pyrimidin-4-yl)oxy)-4-fluoropiperidin-1-yl)prop-2-en-1-one]
- IC50 [1]: 72.3 nM
- IC50 [2]: 2.1 nM
- IC50 [3]: 0.3 nM

SMILES: C=CC(=O)N1CC[C@@H](F)[C@@H](Oc2nc(Nc3cnn(CC)c3)nc3[nH]ccc23)C1 [Example 5, 1-((3S,4R)-3-((2-((1-ethyl-1H-pyrazol-4-yl)amino)-7H-pyrrolo[2,3-d]pyrimidin-4-yl)oxy)-4-fluoropiperidin-1-yl)prop-2-en-1-one]
- IC50 [1]: 101 nM
- IC50 [2, 4]: 1.5 nM
- IC50 [3]: 0.2 nM

SMILES: C=CC(=O)N1CC[C@H](F)[C@H](Oc2nc(Nc3ccc4ncsc4c3)nc3[nH]ccc23)C1 [Example 34, 1-((3R,4S)-3-((2-(benzo[d]thiazol-6-ylamino)-7H-pyrrolo[2,3-d]pyrimidin-4-yl)oxy)-4-fluoropiperidin-1-yl)prop-2-en-1-one]
- IC50 [2, 4]: > 400 nM
- IC50 [3]: > 80 nM

More lines, in order of falling IC50 [3], values ahead:

- IC50 [1]: 115 nM
- IC50 [2]: 4.2 nM
- IC50 [3]: 0.4 nM
SMILES: C=CC(=O)N1CC[C@H](F)[C@H](Oc2nc(Nc3cnn(CC)c3)nc3[nH]ccc23)C1 (racemic) [Example 4, 1-(cis-3-((2-((1-ethyl-1H-pyrazol-4-yl)amino)-7H-pyrrolo[2,3-d]pyrimidin-4-yl)oxy)-4-fluoropiperidin-1-yl)prop-2-en-1-one]

- IC50 [1]: 96 nM
- IC50 [2]: 2.5 nM
- IC50 [3]: 0.3 nM
SMILES: C=CC(=O)N1CC[C@@H](F)[C@H](Oc2nc(Nc3cc(C)ns3)nc3[nH]cc(Cl)c23)C1 (racemic) [Example 11, 1-(trans-3-((5-chloro-2-((3-methylisothiazol-5-yl)amino)-7H-pyrrolo[2,3-d]pyrimidin-4-yl)oxy)-4-fluoropiperidin-1-yl)prop-2-en-1-one]

- IC50 [1]: 32.3 nM
- IC50 [2, 4]: 1.2 nM
- IC50 [3]: 0.2 nM
SMILES: C=CC(=O)N1CC[C@H](F)[C@@H](Oc2nc(Nc3cnn(CC)c3)nc3[nH]ccc23)C1 [Example 25, 1-((3S,4S)-3-((2-((1-ethyl-1H-pyrazol-4-yl)amino)-7H-pyrrolo[2,3-d]pyrimidin-4-yl)oxy)-4-fluoropiperidin-1-yl)prop-2-en-1-one]
